ChEMBL document CHEMBL1144189, “Novel and potent oxazolidinone antibacterials featuring 3-indolylglyoxamide substituents” (Bioorg Med Chem Lett, 2008)
≈ marks a conversion by molar mass, not a printed value.

Legend:
[1] = tested on: Enterococcus faecium; test: Antibacterial activity against vancomycin-resistant Enterococcus faecium DRCC 154; assay type: functional
[2] = tested on: Staphylococcus aureus; test: Antibacterial activity against methicillin-susceptible Staphylococcus aureus DRCC 035; assay type: functional
[3] = tested on: Enterococcus faecalis; test: Antibacterial activity against vancomycin-resistant Enterococcus faecalis DRCC 153; assay type: functional
[4] = tested on: Enterococcus faecalis; test: Antibacterial activity against vancomycin-susceptible Enterococcus faecalis DRCC 034; assay type: functional
[5] = tested on: Staphylococcus aureus; test: Antibacterial activity against methicillin-resistant Staphylococcus aureus DRCC 019; assay type: functional
[6] = tested on: Haemophilus influenzae; test: Antibacterial activity against beta-lactamase deficient Haemophilus influenzae DRCC 433; assay type: functional
[7] = Cmax in Swiss albino mouse at 10 mg/kg, po; assay type: ADME, organism-based; design: dose 10 mg/kg, route oral; conditions: in vivo
[8] = Half life in Swiss albino mouse at 10 mg/kg, po; assay type: ADME, organism-based; design: dose 10 mg/kg, route oral; conditions: in vivo
[9] = tested on: Staphylococcus aureus; test: Antibacterial activity against Staphylococcus aureus DRCC 035 infected mouse systemic infection model administered orally for 1 day at 1 and 5 hrs post-infection and measured daily for 5 days; assay type: functional; conditions: po
[10] = AUC (0 to t) in Swiss albino mouse at 10 mg/kg, po; assay type: ADME, organism-based; design: dose 10 mg/kg, route oral; conditions: plasma
[11] = Drug elimination in Swiss albino mouse at 10 mg/kg, po; assay type: ADME, organism-based; design: dose 10 mg/kg, route oral; conditions: in vivo
[12] = Tmax in Swiss albino mouse at 10 mg/kg, po; assay type: ADME, organism-based; design: dose 10 mg/kg, route oral; conditions: in vivo
[13] = tested on: Staphylococcus aureus; test: Antibacterial activity against linezolid-resistant Staphylococcus aureus DRCC 564; assay type: functional
[14] = tested on: Moraxella catarrhalis; test: Antibacterial activity against beta-lactamase deficient Moraxella catarrhalis DRCC 300; assay type: functional
[15] = tested on: Enterococcus faecalis; test: Antibacterial activity against linezolid-resistant Enterococcus faecalis DRCC 632; assay type: functional

| Structure (SMILES) | MIC [1] [µg/mL] | MIC [2] [µg/mL] | MIC [3] [µg/mL] | MIC [4] [µg/mL] | MIC [5] [µg/mL] | MIC [6] [µg/mL] | Cmax [7] [ng/mL] | half-life [8] [h] | ED50 [9] [mg/kg] | AUC(0-t) [10] [ng·h/mL] | k el [11] [s⁻¹] | Tmax [12] [h] | MIC [13] [µg/mL] | MIC [14] [µg/mL] | MIC [15] [µg/mL] |
| --- | --- | --- | --- | --- | --- | --- | --- | --- | --- | --- | --- | --- | --- | --- | --- |
| CC(=O)NC[C@H]1CN(c2ccc(N3CCN(C(=O)C(=O)c4c[nH]c5ccc([N+](=O)[O-])cc45)CC3)c(F)c2)C(=O)O1 | 2 (≈ 3.62 µM) | 2 (≈ 3.62 µM) | 1 (≈ 1.81 µM) | 1 (≈ 1.81 µM) | 1 (≈ 1.81 µM) | > 32 |  |  |  |  |  |  |  |  |  |
| CC(=O)NC[C@H]1CN(c2ccc(N3CCN(C(=O)C(=O)c4c(C)[nH]c5ccccc45)CC3)c(F)c2)C(=O)O1 | 2 (≈ 3.83 µM) | 2 (≈ 3.83 µM) | 1 (≈ 1.92 µM) | 1 (≈ 1.92 µM) | 1 (≈ 1.92 µM) | > 32 |  |  |  |  |  |  |  |  |  |
| CC(=O)NC[C@H]1CN(c2ccc(N3CCN(C(=O)C(=O)c4cn(C)c5ccccc45)CC3)c(F)c2)C(=O)O1 | 2 (≈ 3.83 µM) | 2 (≈ 3.83 µM) | 1 (≈ 1.92 µM) | 1 (≈ 1.92 µM) | 1 (≈ 1.92 µM) | > 32 |  |  |  |  |  |  |  |  |  |
| CC(=O)NC[C@H]1CN(c2ccc(N3CCN(C(=O)C(=O)c4c[nH]c5ncccc45)CC3)c(F)c2)C(=O)O1 | 1 (≈ 1.97 µM) | 2 (≈ 3.93 µM) | 0.5 (≈ 0.983 µM) | 1 (≈ 1.97 µM) | 1 (≈ 1.97 µM) | > 32 | 1050 | 0.87 | > 30 | 3360 | 0.000219 | 0.5 |  |  |  |
| CC(=O)NC[C@H]1CN(c2ccc(N3CCN(C(=O)C(=O)c4c[nH]c5ccc(Br)cc45)CC3)c(F)c2)C(=O)O1 | 1 (≈ 1.71 µM) | 1 (≈ 1.71 µM) | 0.5 (≈ 0.853 µM) | 1 (≈ 1.71 µM) | 0.5 (≈ 0.853 µM) | > 32 | 680 | 2.17 | 27 | 2250 | 8.89e-05 | 2 | 8 (≈ 13.6 µM) | 2 (≈ 3.41 µM) | 8 (≈ 13.6 µM) |
| CC(=S)NC[C@H]1CN(c2ccc(N3CCN(C(=O)C(=O)c4c[nH]c5ccc(Br)cc45)CC3)c(F)c2)C(=O)O1 | 0.25 (≈ 0.415 µM) | 0.5 (≈ 0.83 µM) | 0.12 (≈ 0.199 µM) | 0.5 (≈ 0.83 µM) | 0.25 (≈ 0.415 µM) | > 32 |  |  | > 30 |  |  |  | 2 (≈ 3.32 µM) | 2 (≈ 3.32 µM) | 2 (≈ 3.32 µM) |
| O=C(C(=O)N1CCN(c2ccc(N3C[C@H](CNC(=O)C(F)F)OC3=O)cc2F)CC1)c1c[nH]c2ccc(Br)cc12 | 0.5 (≈ 0.803 µM) | 2 (≈ 3.21 µM) | 0.25 (≈ 0.402 µM) | 1 (≈ 1.61 µM) | 1 (≈ 1.61 µM) | > 32 |  |  | > 30 |  |  |  | 4 (≈ 6.43 µM) | 2 (≈ 3.21 µM) | 4 (≈ 6.43 µM) |
| CC(=O)NC[C@H]1CN(c2ccc(N3CCN(C(=O)C(=O)c4c[nH]c5ccccc45)CC3)c(F)c2)C(=O)O1 | 1 (≈ 1.97 µM) | 1 (≈ 1.97 µM) | 1 (≈ 1.97 µM) | 1 (≈ 1.97 µM) | 1 (≈ 1.97 µM) | 16 (≈ 31.5 µM) |  |  | 19.4 |  |  |  |  |  |  |
| CC(=O)NC[C@H]1CN(c2ccc(N3CCOCC3)c(F)c2)C(=O)O1 [LINEZOLID] | 2 (≈ 5.93 µM) |  |  |  | 1 (≈ 2.96 µM) | 8 (≈ 23.7 µM) | 6310 | 1.37 | 5.3 | 11000 | 0.000142 | 0.25 | 32 (≈ 94.9 µM) | 4 (≈ 11.9 µM) | 32 (≈ 94.9 µM) |
